From the NIST ThermoML archive (doi:10.1016/j.tca.2015.02.020)
Numbers after ± are expanded uncertainties.

Assay: molar heat capacity at constant pressure; xn = mol fraction of the nth substance listed
Details: 101 kPa, Small sample (50 mg) DSC

NCCO [2-aminoethan-1-ol] + O
Details | molar heat capacity at constant pressure [J/K/mol]
125.88 K, Glass, x1 = 0.19 | 25.67 ± 5.2
126.5 K, Glass, x1 = 0.31 | 30.11 ± 6
126.8 K, Glass, x1 = 0.73 | 44.51 ± 8.9
126.93 K, Glass, x1 = 0.73 | 46.98 ± 2
127.09 K, Glass, x1 = 0.23 | 27.92 ± 1.1
127.56 K, Glass, x1 = 0.19 | 25.67 ± 1
127.58 K, Glass, x1 = 0.23 | 28.2 ± 5.6
128.65 K, Glass, x1 = 0.31 | 31.05 ± 1.3
130.53 K, Glass, x1 = 0.19 | 28.03 ± 5.5
131.15 K, Glass, x1 = 0.31 | 31.68 ± 6.3
131.46 K, Glass, x1 = 0.73 | 45.5 ± 8.9
131.76 K, Glass, x1 = 0.73 | 48.96 ± 2
131.91 K, Glass, x1 = 0.31 | 31.68 ± 1.3
131.92 K, Glass, x1 = 0.23 | 29.6 ± 1.4
132.24 K, Glass, x1 = 0.23 | 29.6 ± 5.9
132.38 K, Glass, x1 = 0.19 | 26.72 ± 1
135.04 K, Glass, x1 = 0.73 | 49.95 ± 2
135.19 K, Glass, x1 = 0.31 | 32.62 ± 1.3
135.2 K, Glass, x1 = 0.19 | 30.13 ± 6
135.2 K, Glass, x1 = 0.23 | 30.71 ± 1.4
135.66 K, Glass, x1 = 0.19 | 27.77 ± 1.3
136.91 K, Glass, x1 = 0.23 | 31.55 ± 6.4
136.92 K, Glass, x1 = 0.31 | 33.88 ± 6.9
137.23 K, Glass, x1 = 0.73 | 46.98 ± 9.4
139.88 K, Glass, x1 = 0.19 | 33.27 ± 6.8
141.59 K, Glass, x1 = 0.23 | 34.34 ± 7
141.59 K, Glass, x1 = 0.31 | 36.07 ± 7.2
141.6 K, Glass, x1 = 0.73 | 52.42 ± 2.5
141.75 K, Glass, x1 = 0.23 | 32.67 ± 1.4
141.75 K, Glass, x1 = 0.31 | 34.19 ± 1.6
141.91 K, Glass, x1 = 0.73 | 47.97 ± 9.4
142.22 K, Glass, x1 = 0.19 | 29.34 ± 1.3
144.56 K, Glass, x1 = 0.19 | 38.25 ± 7.6
144.88 K, Glass, x1 = 0.73 | 53.91 ± 2.5
145.03 K, Glass, x1 = 0.31 | 35.13 ± 1.6
145.04 K, Glass, x1 = 0.23 | 34.06 ± 1.4
145.51 K, Glass, x1 = 0.19 | 30.91 ± 1.3
146.28 K, Glass, x1 = 0.23 | 39.37 ± 7.8
146.28 K, Glass, x1 = 0.31 | 40.15 ± 8.2
146.6 K, Glass, x1 = 0.73 | 49.95 ± 9.9
151.3 K, Glass, x1 = 0.73 | 52.92 ± 10
151.46 K, Glass, x1 = 0.73 | 56.38 ± 2.5
151.61 K, Glass, x1 = 0.31 | 39.21 ± 1.6
154.75 K, Glass, x1 = 0.73 | 57.86 ± 2.5
158.65 K, Liquid, x1 = 0.19 | 63.66 ± 13
160.38 K, Liquid, x1 = 0.23 | 65.61 ± 13
161.96 K, Liquid, x1 = 0.19 | 60.52 ± 2.6
163.35 K, Liquid, x1 = 0.19 | 64.19 ± 13
164.78 K, Liquid, x1 = 0.31 | 75.91 ± 3.1
165.07 K, Liquid, x1 = 0.23 | 65.61 ± 13
165.08 K, Liquid, x1 = 0.31 | 73.71 ± 15
165.25 K, Liquid, x1 = 0.19 | 60.78 ± 2.6
168.06 K, Liquid, x1 = 0.19 | 64.45 ± 13
169.79 K, Liquid, x1 = 0.23 | 65.61 ± 13
169.79 K, Liquid, x1 = 0.31 | 73.4 ± 15
170.12 K, Liquid, x1 = 0.73 | 109.3 ± 22
171.22 K, Liquid, x1 = 0.73 | 122.65 ± 5.4
171.38 K, Liquid, x1 = 0.23 | 68.96 ± 2.8
171.38 K, Liquid, x1 = 0.31 | 75.59 ± 3.1
171.85 K, Liquid, x1 = 0.19 | 61.57 ± 2.6
172.77 K, Liquid, x1 = 0.19 | 64.97 ± 13
174.5 K, Liquid, x1 = 0.23 | 65.61 ± 13
174.5 K, Liquid, x1 = 0.31 | 73.4 ± 15
174.52 K, Liquid, x1 = 0.73 | 121.66 ± 4.9
174.68 K, Liquid, x1 = 0.23 | 69.52 ± 3.1
174.68 K, Liquid, x1 = 0.31 | 75.59 ± 3.1
174.83 K, Liquid, x1 = 0.73 | 109.3 ± 22
175.15 K, Liquid, x1 = 0.19 | 61.83 ± 2.6
177.48 K, Liquid, x1 = 0.19 | 65.23 ± 13
179.21 K, Liquid, x1 = 0.23 | 65.89 ± 13
179.21 K, Liquid, x1 = 0.31 | 73.4 ± 15
179.55 K, Liquid, x1 = 0.73 | 109.79 ± 22
181.12 K, Liquid, x1 = 0.73 | 122.15 ± 4.9
181.28 K, Liquid, x1 = 0.23 | 70.36 ± 3.1
181.28 K, Liquid, x1 = 0.31 | 76.22 ± 3.1
181.75 K, Liquid, x1 = 0.19 | 62.35 ± 2.6
182.19 K, Liquid, x1 = 0.19 | 66.02 ± 13
183.93 K, Liquid, x1 = 0.23 | 66.17 ± 13
183.93 K, Liquid, x1 = 0.31 | 73.71 ± 15
184.27 K, Liquid, x1 = 0.73 | 109.79 ± 22
184.43 K, Liquid, x1 = 0.73 | 122.15 ± 4.9
184.58 K, Liquid, x1 = 0.31 | 76.22 ± 3.1
184.59 K, Liquid, x1 = 0.23 | 70.64 ± 3.1
186.92 K, Liquid, x1 = 0.19 | 66.54 ± 13
188.65 K, Liquid, x1 = 0.23 | 66.73 ± 13
188.65 K, Liquid, x1 = 0.31 | 74.02 ± 15
188.98 K, Liquid, x1 = 0.73 | 110.28 ± 22
191.04 K, Liquid, x1 = 0.73 | 120.18 ± 4.9
191.19 K, Liquid, x1 = 0.31 | 77.16 ± 3.1
191.2 K, Liquid, x1 = 0.23 | 71.48 ± 3.1
191.64 K, Liquid, x1 = 0.19 | 67.07 ± 13
193.38 K, Liquid, x1 = 0.23 | 67.57 ± 14
193.38 K, Liquid, x1 = 0.31 | 74.65 ± 15
193.72 K, Liquid, x1 = 0.73 | 111.27 ± 22
194.5 K, Liquid, x1 = 0.31 | 77.47 ± 3.1
194.51 K, Liquid, x1 = 0.23 | 72.04 ± 3.1
196.37 K, Liquid, x1 = 0.19 | 67.85 ± 14
198.1 K, Liquid, x1 = 0.23 | 68.13 ± 14
198.1 K, Liquid, x1 = 0.31 | 74.97 ± 15
198.44 K, Liquid, x1 = 0.73 | 112.26 ± 23
201.09 K, Liquid, x1 = 0.19 | 68.9 ± 14
201.13 K, Liquid, x1 = 0.23 | 72.59 ± 3.1
201.13 K, Liquid, x1 = 0.31 | 78.73 ± 3.5
202.83 K, Liquid, x1 = 0.23 | 68.96 ± 14
202.84 K, Liquid, x1 = 0.31 | 75.28 ± 15
203.18 K, Liquid, x1 = 0.73 | 112.76 ± 23
204.44 K, Liquid, x1 = 0.23 | 72.87 ± 3.1
204.44 K, Liquid, x1 = 0.31 | 79.36 ± 3.5
205.82 K, Liquid, x1 = 0.19 | 69.95 ± 14
207.56 K, Liquid, x1 = 0.23 | 69.8 ± 14
207.56 K, Liquid, x1 = 0.31 | 76.22 ± 15
